Literature values, collected in patent US20100285123A1, “Controlled Release Dosage Formulation of Duloxetine” (priority 2005, published 2010).
Structures can show the parent of a compound that is named as a salt.

Legend:
[1] = gastric pH
[2] = patients, acute treatment of major depression

Row | headache reported [2] | insomnia reported [2] | Structure (SMILES) | patients who did not experience any treatment experienced related adverse event (110 of 1279 patients) | patients discontinued due to adverse events (218 of 1279 patients, major depression, long-term) | headache, patients reporting (389 of 1279 patients) | insomnia, patients reporting (400 of 1279 patients) | nausea, patients reporting (435 of 1279 patients) | patients who experienced at least one or more treatment experienced adverse event (1169 of 1279 patients) | stability in acidic environment [1] | incidence of nausea [2]
1 |  |  | CNCC[C@H](Oc1cccc2ccccc12)c1cccs1 [Duloxetine hydrochloride] | 8.6% | 17.0% | 30.4% | 31.3% | 34.0% | 91.4% | unstable | 
2 | 11.5% | 8.0% | Fc1ccc([C@@H]2CCNC[C@H]2COc2ccc3c(c2)OCO3)cc1 [Paroxetine] |  |  |  |  |  |  |  | 16.1%
